Source: the supplement of paper PMC13207355
Structures can show the parent of a compound that is named as a salt.

Tests used:
Conditions in all cases: exposure time: 72 h
[1] = tested on: E28 (patient-derived glioblastoma stem cells of classical subtype); assay: phenotypic distance (Euclidean, principal components) from DMSO controls (arbitrary units); higher = stronger morphological change
[2] = tested on: E13 (patient-derived glioblastoma stem cells of classical subtype); assay: as above
[3] = tested on: FT3469 (normal neural stem cell line); assay: as above
[4] = tested on: E34 (patient-derived glioblastoma stem cells of proneural subtype); assay: as above
[5] = tested on: E31 (patient-derived glioblastoma stem cells of proneural subtype); assay: as above
[6] = tested on: E57 (patient-derived glioblastoma stem cells of mesenchymal subtype); assay: as above
[7] = tested on: E21 (patient-derived glioblastoma stem cells of mesenchymal subtype); assay: as above
[8] = tested on: E28; assay: surviving fraction (nuclei count normalised to DMSO); higher = more cells surviving (less toxic)
[9] = tested on: E13; assay: as above
[10] = tested on: FT3469; assay: as above
[11] = tested on: E34; assay: as above
[12] = tested on: E31; assay: as above
[13] = tested on: E57; assay: as above
[14] = tested on: E21; assay: as above
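For phenotypic distance (Euclidean, principal components) from DMSO controls in this document: cell Painting imaging in 384-well plates, CellProfiler features reduced to at least 20 principal components, Euclidean distance versus same-plate DMSO vehicle wells (0.1% v/v), median over six images per well.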
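For surviving fraction (nuclei count normalised to DMSO) in this document: nuclei counted by high-content imaging of Hoechst-stained cells in laminin-coated 384-well plates, relative to 0.1% DMSO vehicle wells, with staurosporine as cell-death control.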

Nc1ccn([C@@H]2O[C@H](CO)[C@@H](O)C2(F)F)c(=O)n1 [Gemcitabine HCl]
Conditions | phenotypic distance | surviving fraction
[1], 4.1 nM | 3.94 | –
[1], 12.3 nM | 3.54 | –
[1], 37 nM | 3.74 | –
[1], 111.1 nM | 3.43 | –
[1], 333.3 nM | 3.31 | –
[1], 1000 nM | 3.19 | –
[1], 3000 nM | 4.17 | –
[2], 4.1 nM | 5.82 | –
[2], 12.3 nM | 5.84 | –
[2], 37 nM | 5.64 | –
[2], 111.1 nM | 4.94 | –
[2], 333.3 nM | 6.22 | –
[2], 1000 nM | 5.7 | –
[2], 3000 nM | 5.74 | –
[3], 4.1 nM | 1.82 | –
[3], 12.3 nM | 1.99 | –
[3], 37 nM | 2.01 | –
[3], 111.1 nM | 2.15 | –
[3], 333.3 nM | 1.98 | –
[3], 1000 nM | 1.8 | –
[3], 3000 nM | 1.5 | –
[4], 4.1 nM | 3.49 | –
[4], 12.3 nM | 2.98 | –
[4], 37 nM | 3.41 | –
[4], 111.1 nM | 4.74 | –
[4], 333.3 nM | 3.17 | –
[4], 1000 nM | 2.85 | –
[4], 3000 nM | 2.83 | –
[5], 4.1 nM | 3.35 | –
[5], 12.3 nM | 2.57 | –
[5], 37 nM | 3.01 | –
[5], 111.1 nM | 2.66 | –
[5], 333.3 nM | 2.37 | –
[5], 1000 nM | 3 | –
[5], 3000 nM | 3.64 | –
[6], 4.1 nM | 6.66 | –
[6], 12.3 nM | 8.21 | –
[6], 37 nM | 6.89 | –
[6], 111.1 nM | 7.27 | –
[6], 333.3 nM | 7.04 | –
[6], 1000 nM | 7.07 | –
[6], 3000 nM | 6.77 | –
[7], 4.1 nM | 4.04 | –
[7], 12.3 nM | 4.48 | –
[7], 37 nM | 4.76 | –
[7], 111.1 nM | 5.02 | –
[7], 333.3 nM | 4.71 | –
[7], 1000 nM | 4.97 | –
[7], 3000 nM | 4.67 | –
[8], 4.1 nM | – | 0.359
[8], 12.3 nM | – | 0.438
[8], 37 nM | – | 0.376
[8], 111.1 nM | – | 0.456
[8], 333.3 nM | – | 0.401
[8], 1000 nM | – | 0.361
[8], 3000 nM | – | 0.264
[9], 4.1 nM | – | 0.327
[9], 12.3 nM | – | 0.326
[9], 37 nM | – | 0.331
[9], 111.1 nM | – | 0.351
[9], 333.3 nM | – | 0.32
[9], 1000 nM | – | 0.333
[9], 3000 nM | – | 0.352
[10], 4.1 nM | – | 0.53
[10], 12.3 nM | – | 0.842
[10], 37 nM | – | 0.616
[10], 111.1 nM | – | 0.663
[10], 333.3 nM | – | 0.566
[10], 1000 nM | – | 0.568
[10], 3000 nM | – | 0.645
[11], 4.1 nM | – | 0.494
[11], 12.3 nM | – | 0.545
[11], 37 nM | – | 0.509
[11], 111.1 nM | – | 0.52
[11], 333.3 nM | – | 0.549
[11], 1000 nM | – | 0.496
[11], 3000 nM | – | 0.415
[12], 4.1 nM | – | 0.147
[12], 12.3 nM | – | 0.249
[12], 37 nM | – | 0.161
[12], 111.1 nM | – | 0.229
[12], 333.3 nM | – | 0.201
[12], 1000 nM | – | 0.199
[12], 3000 nM | – | 0.161
[13], 4.1 nM | – | 0.168
[13], 12.3 nM | – | 0.168
[13], 37 nM | – | 0.156
[13], 111.1 nM | – | 0.165
[13], 333.3 nM | – | 0.139
[13], 1000 nM | – | 0.159
[13], 3000 nM | – | 0.149
[14], 4.1 nM | – | 0.161
[14], 12.3 nM | – | 0.173
[14], 37 nM | – | 0.126
[14], 111.1 nM | – | 0.143
[14], 333.3 nM | – | 0.147
[14], 1000 nM | – | 0.129
[14], 3000 nM | – | 0.0999

CCCCC(CC)CNC(=N)NC(=N)NCCCCCCNC(=N)NC(=N)NCC(CC)CCCC (stereo unspecified) [Alexidine dihydrochloride]
Conditions | phenotypic distance | surviving fraction
[1], 4.1 nM | 1.07 | –
[1], 12.3 nM | 0.612 | –
[1], 37 nM | 0.518 | –
[1], 111.1 nM | 0.461 | –
[1], 333.3 nM | 1.31 | –
[1], 1000 nM | 3.13 | –
[1], 3000 nM | 12.9 | –
[2], 4.1 nM | 0.582 | –
[2], 12.3 nM | 0.387 | –
[2], 37 nM | 0.788 | –
[2], 111.1 nM | 0.757 | –
[2], 333.3 nM | 1.76 | –
[2], 1000 nM | 1.39 | –
[2], 3000 nM | 10.1 | –
[3], 4.1 nM | 1.28 | –
[3], 12.3 nM | 1.28 | –
[3], 37 nM | 1.13 | –
[3], 111.1 nM | 0.545 | –
[3], 333.3 nM | 1.44 | –
[3], 1000 nM | 2.26 | –
[3], 3000 nM | 11.7 | –
[4], 4.1 nM | 1.35 | –
[4], 12.3 nM | 1.19 | –
[4], 37 nM | 0.769 | –
[4], 111.1 nM | 0.582 | –
[4], 333.3 nM | 0.858 | –
[4], 1000 nM | 4.01 | –
[4], 3000 nM | 14.9 | –
[5], 4.1 nM | 0.786 | –
[5], 12.3 nM | 0.686 | –
[5], 37 nM | 1.01 | –
[5], 111.1 nM | 0.884 | –
[5], 333.3 nM | 0.669 | –
[5], 1000 nM | 5.57 | –
[5], 3000 nM | 11.7 | –
[6], 4.1 nM | 0.655 | –
[6], 12.3 nM | 0.696 | –
[6], 37 nM | 0.435 | –
[6], 111.1 nM | 0.715 | –
[6], 333.3 nM | 1.53 | –
[6], 1000 nM | 6.34 | –
[6], 3000 nM | 10.4 | –
[7], 4.1 nM | 0.597 | –
[7], 12.3 nM | 1.12 | –
[7], 37 nM | 0.958 | –
[7], 111.1 nM | 0.651 | –
[7], 333.3 nM | 0.84 | –
[7], 1000 nM | 4.98 | –
[7], 3000 nM | 19 | –
[8], 4.1 nM | – | 0.911
[8], 12.3 nM | – | 0.933
[8], 37 nM | – | 0.847
[8], 111.1 nM | – | 1.04
[8], 333.3 nM | – | 0.694
[8], 1000 nM | – | 0.233
[8], 3000 nM | – | 0.0064
[9], 4.1 nM | – | 0.884
[9], 12.3 nM | – | 0.905
[9], 37 nM | – | 0.978
[9], 111.1 nM | – | 0.877
[9], 333.3 nM | – | 0.607
[9], 1000 nM | – | 0.602
[9], 3000 nM | – | 0.0804
[10], 4.1 nM | – | 0.76
[10], 12.3 nM | – | 0.814
[10], 37 nM | – | 0.863
[10], 111.1 nM | – | 1.16
[10], 333.3 nM | – | 0.863
[10], 1000 nM | – | 0.504
[10], 3000 nM | – | 0.0403
[11], 4.1 nM | – | 0.86
[11], 12.3 nM | – | 1.11
[11], 37 nM | – | 0.972
[11], 111.1 nM | – | 0.991
[11], 333.3 nM | – | 0.939
[11], 1000 nM | – | 0.512
[11], 3000 nM | – | 0.0472
[12], 4.1 nM | – | 0.955
[12], 12.3 nM | – | 0.825
[12], 37 nM | – | 1.1
[12], 111.1 nM | – | 1.02
[12], 333.3 nM | – | 0.871
[12], 1000 nM | – | 0.125
[12], 3000 nM | – | 0.013
[13], 4.1 nM | – | 1.01
[13], 12.3 nM | – | 1.01
[13], 37 nM | – | 0.91
[13], 111.1 nM | – | 1.03
[13], 333.3 nM | – | 0.828
[13], 1000 nM | – | 0.252
[13], 3000 nM | – | 0.00967
[14], 4.1 nM | – | 0.967
[14], 12.3 nM | – | 0.916
[14], 37 nM | – | 0.945
[14], 111.1 nM | – | 1.02
[14], 333.3 nM | – | 1.07
[14], 1000 nM | – | 0.368
[14], 3000 nM | – | 0.00297
